Results on 2 molecules are retold here after US20220386606A1, “SPECIFICALLY SUBSTITUTED 3-PHENYL-5-SPIROCYCLOPENTYL-3-PYRROLIN-2-ONES AND THEIR USE AS HERBICIDES” (Bayer Aktiengesellschaft, priority 2019, published 2022).

Assay [1] has as its system LOLRI. Description: Post-emergence herbicidal action against LOLRI. The assay is classed as in vivo, Lolium rigidum. To be noted: 80 g/ha, visual assessment about 3 weeks after treatment vs untreated controls. In short, it runs like this:
(§1)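 Herbicidal action is rated visually in percent against untreated controls, where 100% means dead plants and 0% means no difference. Ratings come about 3 weeks after foliar spraying of one-leaf-stage plants with aqueous WP or EC preparations plus 0.2% wetting agent at 600 to 800 l/ha.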

The subject of assay [2] is POLCO. Description: Post-emergence herbicidal action against POLCO. The assay is classed as in vivo, Polygonum convolvulus. To be noted: 80 g/ha, visual assessment about 3 weeks after treatment vs untreated controls. The method, then:
(§2) Seeds of monocotyledonous and dicotyledonous weed and crop plants are laid out in sandy loam soil in wood-fiber pots, covered with soil and cultivated in a greenhouse under good growth conditions. 2 to 3 weeks after sowing, the test plants are treated at the one-leaf stage. The compounds of the invention, formulated in the form of wettable powders (WP) or as emulsion concentrates (EC), are then sprayed onto the green parts of the plants as aqueous suspension or emulsion at a water application rate equating to 600 to 800 l/ha with addition of 0.2% wetting agent. After the test plants have been left to stand in the greenhouse under optimal growth conditions for about 3 weeks, the action of the preparations is assessed visually in comparison to untreated controls (herbicidal action in percent (%): 100% activity=the plants have died, 0% activity=like control plants).

Assay [3] has as its system ALOMY. Put plainly: Post-emergence herbicidal action against ALOMY. Type of assay: in vivo, Alopecurus myosuroides. To be noted: 80 g/ha, visual assessment after about 3 weeks. In short, it runs like this: as §1
The next assay has as its system AVEFA. Description: Pre-emergence herbicidal action against AVEFA. The assay is classed as in vivo, Avena fatua. To be noted: 320 g/ha, scored visually after 3 weeks vs untreated controls. In short, it runs like this:
(§3)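 Weed and crop seeds sown in sandy loam, then WP or EC formulations sprayed onto covering soil pre-emergence as aqueous suspension or emulsion at 600 to 800 L/ha water with 0.2% wetting agent. Greenhouse-grown; visual damage scored after 3 weeks versus untreated controls, 0–100%.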

In assay [4] the test system is LOLRI. Description: Pre-emergence herbicidal action against LOLRI (Table 8, titled post-emergence at 320 g/ha). As to conditions: table stands in the pre-emergence section. The assay is classed as in vivo, Lolium rigidum. In short, it runs like this: as §3
Assay [5] concerns ECHCG. Put plainly: Pre-emergence herbicidal action against ECHCG. Type of assay: in vivo, Echinochloa crus-galli. As to conditions: 320 g/ha, scored visually after 3 weeks vs untreated controls. In short, it runs like this: as §3
Assay [6] relates to ALOMY. Put plainly: Pre-emergence herbicidal action against ALOMY. Type of assay: in vivo, Alopecurus myosuroides. As to conditions: 320 g/ha, scored visually after 3 weeks vs untreated controls. In short, it runs like this:
as §3

The subject of assay [7] is VERPE. Description: Post-emergence herbicidal action against VERPE. The assay is classed as in vivo, Veronica persica. To be noted: 80 g/ha, visual assessment about 3 weeks after treatment vs untreated controls. On the procedure:
as §2

The subject of assay [8] is ECHCG. Description: Post-emergence herbicidal action against ECHCG. Type of assay: in vivo, Echinochloa crus-galli. To be noted: 80 g/ha, visual assessment about 3 weeks after treatment vs untreated controls. In short, it runs like this: as §1
The subject of assay [9] is SETVI. Put plainly: Post-emergence herbicidal action against SETVI. Type of assay: in vivo, Setaria viridis. To be noted: 80 g/ha, visual assessment about 3 weeks after treatment vs untreated controls. In short, it runs like this:
as §1

In assay [10] the test system is DIGSA. Description: Pre-emergence herbicidal action against DIGSA. The assay is classed as in vivo, Digitaria sanguinalis. As to conditions: 320 g/ha, scored visually after 3 weeks vs untreated controls. In short, it runs like this:
as §3

Assay [11] has as its system VERPE. Description: Pre-emergence herbicidal action against VERPE. Type of assay: in vivo, Veronica persica. As to conditions: 320 g/ha. In short, it runs like this: as §3
The subject of assay [12] is DIGSA. Description: Post-emergence herbicidal action against DIGSA. To be noted: 80 g/ha, visual assessment about 3 weeks after treatment vs untreated controls. Type of assay: in vivo, Digitaria sanguinalis. In short, it runs like this: as §1
The subject of assay [13] is SETVI. Put plainly: Pre-emergence herbicidal action against SETVI. Type of assay: in vivo, Setaria viridis. To be noted: 320 g/ha, scored visually after 3 weeks vs untreated controls. In short, it runs like this:
as §3

A further assay relates to VIOTR. Description: Pre-emergence herbicidal action against VIOTR. To be noted: 320 g/ha. Type of assay: in vivo, Viola tricolor. In short, it runs like this:
as §3

Assay [14] deals with ABUTH. Description: Post-emergence herbicidal action against ABUTH. As to conditions: 80 g/ha, visual assessment about 3 weeks after treatment vs untreated controls. Type of assay: in vivo, Abutylon threophrasti. In short, it runs like this:
as §1

The subject of a further assay is PHBPU. Description: Post-emergence herbicidal action against PHBPU. The assay is classed as in vivo. As to conditions: assessed visually after about 3 weeks, 100% = plants have died, 0% = like control plants. On the procedure: as §2
The test system of assay [15] is POLCO. Description: Pre-emergence herbicidal action against POLCO. Type of assay: in vivo, Polygonum convolvulus. To be noted: 320 g/ha. In short, it runs like this:
as §3

Assay [16] relates to ABUTH. Put plainly: Pre-emergence herbicidal action against ABUTH. The assay is classed as in vivo, Abutylon threophrasti. To be noted: 320 g/ha. In short, it runs like this:
as §3

`CC#Cc1cc(Br)c(C2=C(O)[C@]3(CC[C@H](COCC)C3)NC2=O)c(OC)c1` (stereo in doubt) [Example I-11, 3-(2-Bromo-6-methoxy-4-prop-1-ynylphenyl)-8-(ethoxymethyl)-4-hydroxy-1-azaspiro[4.4]non-3-en-2-one]: in the assay on LOLRI [1], the “Post-emergence action against LOLRI in %” value was determined as 100%. Moreover, the “Post-emergence action against POLCO in %” value in the assay on POLCO [2] came to 80%. Besides, the “Post-emergence action against ALOMY in %” value in the assay with ALOMY [3] amounted to 100%. Also, the “Pre-emergence action against AVEFA in %” value with AVEFA is on record as 100%. Moreover, the “Pre-emergence herbicidal action against LOLRI in %” value in the assay on LOLRI [4] came out at 100%. Also, the “Pre-emergence action against ECHCG in %” value with ECHCG [5] is listed as 100%. In addition, the “Pre-emergence action against ALOMY in %” value in the assay with ALOMY [6] was 100%. Besides, in the assay with VERPE [7], the “Post-emergence action against VERPE in %” value is 80%. For the same molecule, in the assay with ECHCG [8], the “Post-emergence action against ECHCG in %” value was 100%. The “Post-emergence action against SETVI in %” value with SETVI [9] was 100%. For the same molecule, the “Pre-emergence action against DIGSA in %” value with DIGSA [10] was 100%. Besides, in the assay with VERPE [11], the “Pre-emergence action against VERPE in %” value came out at 100%. Besides, the “Post-emergence action against DIGSA in %” value in the assay on DIGSA [12] is 100%. Also, the “Pre-emergence action against SETVI in %” value in the assay on SETVI [13] was 100%. For the same molecule, the “Pre-emergence action against VIOTR in %” value with VIOTR worked out at 90%.
Regarding `CC#Cc1cc(Br)c(C2=C(O)C3(CCC(COCC)C3)NC2=O)c(OC)c1` (centres unmarked) [Example I-05], the “Post-emergence action against LOLRI in %” value with LOLRI [1] is 100%. Besides, in the assay with POLCO [2], the “Post-emergence action against POLCO in %” value was 100%. The “Post-emergence action against ALOMY in %” value in the assay with ALOMY [3] was 100%. Besides, the “Post-emergence action against ABUTH in %” value with ABUTH [14] was 80%. Also, the “Pre-emergence action against AVEFA in %” value in the assay with AVEFA was 100%. In addition, the “Post-emergence action at 80 g/ha against PHBPU in %” value in the assay on PHBPU came out at 80%. Besides, the “Pre-emergence herbicidal action against LOLRI in %” value in the assay on LOLRI [4] amounted to 100%. In the assay on ECHCG [5], the “Pre-emergence action against ECHCG in %” value stood at 100%. Moreover, the “Pre-emergence action against POLCO in %” value in the assay with POLCO [15] was determined as 80%. Besides, the “Pre-emergence action against ALOMY in %” value with ALOMY [6] worked out at 100%. Further, the “Post-emergence action against ECHCG in %” value with ECHCG [8] amounted to 100%. In addition, the “Post-emergence action against SETVI in %” value in the assay with SETVI [9] is listed as 100%. For the same molecule, the “Pre-emergence action against DIGSA in %” value in the assay with DIGSA [10] is 100%. For the same molecule, the “Post-emergence action against DIGSA in %” value with DIGSA [12] is given as 100%. The “Pre-emergence action against SETVI in %” value with SETVI [13] was found to be 100%. The “Pre-emergence action against VIOTR in %” value in the assay with VIOTR worked out at 90%. In addition, in the assay with ABUTH [16], the “Pre-emergence action against ABUTH in %” value is given as 80%.
